Laboratory results reported in patent publication US20120251628A1, “COMPOSITIONS AND METHODS FOR TREATMENT OF CANCER” (priority 2011, published 2012).

Legend:
HUVECs = assay: Cytotoxicity test of HUVECs (CellTiter 96 Aqueous One Solution); type: cell-based, Human
Experimental: To determine the effect, if any, of sodium meta arsenite on vascularization, the effect on endothelial cells (which are essential for vascularization) was first analyzed. Human umbilical cord vein endothelial cells (HUVECs offered by ATCC) were cultivated in 96-well microculture plates containing F-12K (Sigma) medium supplemented with 10% FBS and endothelial cell growth supplement (ECGS, E2759, Sigma). For the cytotoxicity test of the cells after 24 hour cultivation, the cells were treated with KML001 at the concentration of 0.1 nM, 1 nM, 10 nM, 1 uM, 10 uM and 100 uM. At 24 hours and 48 hours after treatment, 20 μl/well of CellTiter 96® Aqueous One Solution (by Promega) Reagent was added on each well and reacted for one hour at 37° C. The reacted 96-well plates were measured at 490 nm using a spectrophotometer (UVStar, Greiner Bio-One). To analyze apoptosis of HUVECs, the cells were cultivated on F25 flasks using the same method as discussed above and then the cells were treated with sodium meta arsenite at a concentration of 10 uM, 20 uM and 50 uM. Cells were collected after 24 and 48 hours. The collected cells were stained for 30 minutes with Annexin-V for FACS analysis. After two washes, the cells were analyzed by using flow cytometry (FACSCALIBUR, BECTON DICLINSON).

[1] = system: CT26 (mouse colon cancer); assay: DCE-MRI of tumor vascularity (Kep) in CT26 tumor mice; type: in vivo
Experimental: To determine whether the occurrence of central necrosis of tumors 24 hours after treatment was caused by the reduction of vascularity, DCE-MRI was used before the medication was administered and 24 hours after administration.
Inoculate CT26 (mouse colon cancer) 2×10^6 cell subcutaneously into mice on the upper parts of their thighs.
After checking the tumor size between 6 to 10 mm, acquire images through MRI.
Image Acquisition: Use a magnetic resonance imaging device (i.e., 3 Tesla Intera human clinical scanner; Philips medical systems) and a mouse coil with an inner diameter of 4 cm to get images. Acquire images before the drug is administered and those 24 hours after that for two days.
MR Pulse Sequence as follows: Dynamic Contrast enhanced MRI scan: FOV (mm)=50×35; RFOV (%)=71; Matrix scan=112; reconstruction=224; TR/TE (ms)=12/4.0; slice thickness=1 mm; slice number=11; dynamic scans=60.
i. Conduct an experiment to the subjects under anesthesia by using an inhalation anesthetic mixing 1.5% isoflurane in 100% oxygen at a flow rate of 1 L/min.
ii. Cannulate an intravenous injection line through the tail vein to inject a contrast agent.
iii. Use Gd-DTPA (Magnevist, Schering, Germany, 281 mg/kg) as a contrast agent and get pre-contrast images before injecting the contrast agent and post-contrast images after injecting it.
iv. After getting the images, inject KML001 (10 mg/kg) and Arsenic trioxide (7.5 mg/kg) intraperitoneally.
v. Get images through a dynamic scan again 24 hours after injection.
Accordingly, the groups of animals with which the DCE-MRI data was obtained are as follows: Group of animals treated with ATO: n=4, Group of animals treated with Saline: n=4 and Group of animals treated with KML001: n=6.
As the low data in MRI was mapped from each result of the DCE-MRI to the positive control group of animals treated with ATO, the negative control group of animals treated with saline and the experimental group of animals treated with KML001, Kep values important for tumor vascularity were calculated. Kep (rate constant) is the back diffusion rate constant from interstitial space to vascular space, reflecting leakage of tumor vessels, i.e., a measurement of vascularity.

With `O=[As][O-].[Na+]` [sodium meta arsenite] the “concentration at which cytotoxicity was observed” value (HUVECs; 24 and 48 hours after treatment, tested 0.1 nM to 100 uM) was 10 µM, the cytotoxicity over time (HUVECs; 24 hours vs 48 hours) was “significantly increased over time” and the “Kep values (back diffusion rate constant, tumor vascularity)” value ([1]; 24 hours after intraperitoneal injection vs pre-treatment, KML001 10 mg/kg, ATO 7.5 mg/kg) was “significantly reduced”. For the same compound, the “contrast enhancement of the tumors in the MRI” value ([1]; 24 hours after treatment) was “decreased”.
